From ChEMBL document CHEMBL4000220, “Optimization of spirocyclic proline tryptophan hydroxylase-1 inhibitors” (Bioorg Med Chem Lett, 2017)
Activity calls are given as the source filed them. The rule behind the calls is not given here.

Assays:
[1] = target: T1, Tryptophan 5-hydroxylase 1 (Homo sapiens, UniProt P17752)
T1 sequence (P17752 whole entry): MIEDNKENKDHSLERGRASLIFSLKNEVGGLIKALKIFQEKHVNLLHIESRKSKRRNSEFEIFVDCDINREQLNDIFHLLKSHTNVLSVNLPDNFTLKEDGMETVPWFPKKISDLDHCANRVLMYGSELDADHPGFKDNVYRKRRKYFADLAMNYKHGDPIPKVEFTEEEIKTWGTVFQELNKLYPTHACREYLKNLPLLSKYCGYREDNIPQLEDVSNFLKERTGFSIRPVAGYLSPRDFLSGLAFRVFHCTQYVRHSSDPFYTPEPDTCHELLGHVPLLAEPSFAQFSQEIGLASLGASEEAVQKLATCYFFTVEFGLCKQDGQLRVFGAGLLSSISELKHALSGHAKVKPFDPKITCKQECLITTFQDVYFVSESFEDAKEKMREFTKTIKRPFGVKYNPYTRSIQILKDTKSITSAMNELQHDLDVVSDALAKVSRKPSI
Description: Inhibition of TPH1 (unknown origin)

Mus musculus [2] = test: In vivo inhibition of TPH1 in mouse assessed as reduction in 5-HT level in intestinal mucosa at 50 mg/kg, po administered daily as single dose relative to control; format: functional
[3] = Drug level in rat hepatocytes treated with ethyl 8-(2-amino-6-((R)-1-(4-chloro-2-(3-methyl-1H-pyrazol-1-yl)phenyl)-2,2,2-trifluoroethoxy)pyrimidin-4-yl)-2,8-diazaspiro[4.5]decane-3-carboxylate; format: ADME, cell-based, Hepatocyte
Mus musculus [4] = test: Drug level in mouse treated with (S)-ethyl 8-(2-amino-6-((R)-1-(5-chloro-3'-methylbiphenyl-2-yl)-2,2,2-trifluoroethoxy)pyrimidin-4-yl)-2,8-diazaspiro[4.5]decane-3-carboxylate at 10 to 50 mg/kg, po administered as single dose; format: ADME, organism-based; conditions: in vivo
Mus musculus [5] = test: Drug level in mouse treated with (S)-ethyl 8-(2-amino-6-((R)-1-(5-chloro-3'-(trifluoromethyl)biphenyl-2-yl)-2,2,2-trifluoroethoxy)pyrimidin-4-yl)-2,8-diazaspiro[4.5]decane-3-carboxylate at 10 to 50 mg/kg, po administered as single dose; format: ADME, organism-based; conditions: in vivo
Mus musculus [6] = test: Drug level in mouse treated with (S)-ethyl 8-(2-amino-6-((R)-1-(5-chloro-3',5'-difluorobiphenyl-2-yl)-2,2,2-trifluoroethoxy)pyrimidin-4-yl)-2,8-diazaspiro[4.5]decane-3-carboxylate at 10 to 50 mg/kg, po administered as single dose; format: ADME, organism-based; conditions: in vivo
Mus musculus [7] = test: Drug level in mouse treated (S)-ethyl 8-(2-amino-6-((R)-1-(5-chloro-3'-fluorobiphenyl-2-yl)-2,2,2-trifluoroethoxy)pyrimidin-4-yl)-2,8-diazaspiro[4.5]decane-3-carboxylate at 10 to 50 mg/kg, po administered as single dose; format: ADME, organism-based; conditions: in vivo
Mus musculus [8] = test: Drug level in mouse treated with (S)-ethyl 8-(2-amino-6-((R)-1-(3'-tert-butyl-5-chlorobiphenyl-2-yl)-2,2,2-trifluoroethoxy)pyrimidin-4-yl)-2,8-diazaspiro[4.5]decane-3-carboxylate at 10 to 50 mg/kg, po administered as single dose; format: ADME, organism-based; conditions: in vivo

SMILES	IC50 [1] [nM]	inhibition (Mus musculus [2])	other results
Nc1nc(O[C@H](c2ccc(Cl)cc2-c2ccc(S(N)(=O)=O)cc2)C(F)(F)F)cc(N2CCC3(CC2)CN[C@H](C(=O)O)C3)n1	1130	–	–
Cc1ccn(-c2cc(-c3ccc(Cl)c(Cl)c3)ccc2[C@@H](Oc2cc(N3CCC4(CC3)CN[C@H](C(=O)O)C4)nc(N)n2)C(F)(F)F)n1	22	–	–
Nc1nc(O[C@H](c2ccc(Cl)cc2-c2ccc(F)c(F)c2)C(F)(F)F)cc(N2CCC3(CC2)CN[C@H](C(=O)O)C3)n1	35	–	–
CCOC(=O)[C@@H]1CC2(CCN(c3cc(O[C@H](c4ccc(-c5ccc6nc(SC)ccc6c5)cc4)C(F)(F)F)nc(N)n3)CC2)CN1	–	inactive	–
Nc1nc(O[C@H](c2ccc(-c3ccc4ncc(F)cc4c3)cc2)C(F)(F)F)cc(N2CCC3(CC2)CN[C@H](C(=O)O)C3)n1	40	inactive	–
COc1ccc(-c2ccc([C@@H](Oc3cc(N4CCC5(CC4)CN[C@H](C(=O)O)C5)nc(N)n3)C(F)(F)F)c(-n3ccc(C)n3)c2)cc1	23	–	–
N#Cc1cccc(-c2cc(Cl)ccc2[C@@H](Oc2cc(N3CCC4(CC3)CN[C@H](C(=O)O)C4)nc(N)n2)C(F)(F)F)c1	30	–	–
Nc1nc(O[C@H](c2ccc(-c3ccc4cnccc4c3)cc2)C(F)(F)F)cc(N2CCC3(CC2)CN[C@H](C(=O)O)C3)n1	25	inactive	–
Nc1nc(O[C@H](c2ccc(Cl)cc2-n2ccc(C(=O)O)n2)C(F)(F)F)cc(N2CCC3(CC2)CNC(C(=O)O)C3)n1 (some centres undefined)	–	–	Drug metabolism [3]: Metabolite_Detected
CCOC(=O)[C@@H]1CC2(CCN(c3cc(O[C@H](c4ccc(-c5ccc(Cl)c(Cl)c5)cc4-n4ccc(C)n4)C(F)(F)F)nc(N)n3)CC2)CN1	–	–	inhibition in vivo at 50 mg/kg (Mus musculus [2]): 60%
CCOC(=O)[C@@H]1CC2(CCN(c3cc(O[C@H](c4ccc(-c5ccc6ncc(F)cc6c5)cc4)C(F)(F)F)nc(N)n3)CC2)CN1	–	inactive	–
CCOC(=O)[C@@H]1CC2(CCN(c3cc(O[C@H](c4ccc(-c5ccc6[nH]ncc6c5)cc4)C(F)(F)F)nc(N)n3)CC2)CN1	–	inactive	–
CN(C)S(=O)(=O)c1cccc(-c2cc(Cl)ccc2[C@@H](Oc2cc(N3CCC4(CC3)CN[C@H](C(=O)O)C4)nc(N)n2)C(F)(F)F)c1	53	–	–
CCOC(=O)[C@@H]1CC2(CCN(c3cc(O[C@H](c4ccc(-c5ccc6c(c5)CCN(C)C6=O)cc4)C(F)(F)F)nc(N)n3)CC2)CN1	–	inactive	–
CCOc1ccc(-c2cc(Cl)ccc2[C@@H](Oc2cc(N3CCC4(CC3)CN[C@H](C(=O)O)C4)nc(N)n2)C(F)(F)F)cc1Cl	207	–	–
CCOC(=O)[C@@H]1CC2(CCN(c3cc(O[C@H](c4ccc(-c5ccc(OC)cc5)cc4-n4ccc(C)n4)C(F)(F)F)nc(N)n3)CC2)CN1	–	–	inhibition in vivo at 50 mg/kg (Mus musculus [2]): 46%
Nc1nc(O[C@H](c2ccc(Cl)cc2-n2ccc(COS(=O)(=O)O)n2)C(F)(F)F)cc(N2CCC3(CC2)CNC(C(=O)O)C3)n1 (some centres undefined)	–	–	Drug metabolism [3]: Metabolite_Detected
Cc1cc(-c2cc(Cl)ccc2[C@@H](Oc2cc(N3CCC4(CC3)CN[C@H](C(=O)O)C4)nc(N)n2)C(F)(F)F)ccc1Cl	62	–	–
CSc1ccc2cc(-c3ccc([C@@H](Oc4cc(N5CCC6(CC5)CN[C@H](C(=O)O)C6)nc(N)n4)C(F)(F)F)cc3)ccc2n1	26	inactive	–
CN1CCc2cc(-c3ccc([C@@H](Oc4cc(N5CCC6(CC5)CN[C@H](C(=O)O)C6)nc(N)n4)C(F)(F)F)cc3)ccc2C1=O	39	inactive	–
NC(=O)c1cccc(-c2cc(Cl)ccc2[C@@H](Oc2cc(N3CCC4(CC3)CN[C@H](C(=O)O)C4)nc(N)n2)C(F)(F)F)c1	40	–	–
Cc1cccc(-c2cc(Cl)ccc2[C@@H](Oc2cc(N3CCC4(CC3)CN[C@H](C(=O)O)C4)nc(N)n2)C(F)(F)F)c1	26	–	Drug metabolism (Mus musculus [4]): Metabolite_Detected
CCOC(=O)[C@@H]1CC2(CCN(c3cc(O[C@H](c4ccc(-c5ccc6c(C)n(C)nc6c5)cc4)C(F)(F)F)nc(N)n3)CC2)CN1	–	inactive	–
Nc1nc(O[C@H](c2ccc(Cl)cc2-c2cccc(C(F)(F)F)c2)C(F)(F)F)cc(N2CCC3(CC2)CN[C@H](C(=O)O)C3)n1	21	–	Drug metabolism (Mus musculus [5]): Metabolite_Detected
CCOC(=O)[C@@H]1CC2(CCN(c3cc(O[C@H](c4ccc(-c5ccc6c(C)nn(C)c6c5)cc4)C(F)(F)F)nc(N)n3)CC2)CN1	–	inactive	–

SMILES	IC50 [1] [nM]	inhibition (Mus musculus [2])	other results
Nc1nc(O[C@H](c2ccc(Cl)cc2-c2ccc(Cl)cc2)C(F)(F)F)cc(N2CCC3(CC2)CN[C@H](C(=O)O)C3)n1	53	–	–
CCOC(=O)[C@@H]1CC2(CCN(c3cc(O[C@H](c4ccc(Cl)cc4)C(F)(F)F)nc(N)n3)CC2)CN1	–	inactive	–
Nc1nc(O[C@H](c2ccc(Cl)cc2-c2cc(F)cc(F)c2)C(F)(F)F)cc(N2CCC3(CC2)CN[C@H](C(=O)O)C3)n1	22	–	Drug metabolism (Mus musculus [6]): Metabolite_Detected
Nc1nc(O[C@H](c2ccc(Cl)cc2-c2cccc(F)c2)C(F)(F)F)cc(N2CCC3(CC2)CN[C@H](C(=O)O)C3)n1	32	–	Drug metabolism (Mus musculus [7]): Metabolite_Detected
CCOC(=O)[C@@H]1CC2(CCN(c3cc(O[C@H](c4ccc(Cl)cc4-n4ccc(C)n4)C(F)(F)F)nc(N)n3)CC2)CN1	–	–	inhibition in vivo at 50 mg/kg (Mus musculus [2]): 61%
Nc1nc(O[C@H](c2ccc(-c3ccc4c(c3)CCC(=O)N4)cc2)C(F)(F)F)cc(N2CCC3(CC2)CN[C@H](C(=O)O)C3)n1	28	inactive	–
Nc1nc(O[C@H](c2ccc(-c3ccc4[nH]ncc4c3)cc2)C(F)(F)F)cc(N2CCC3(CC2)CN[C@H](C(=O)O)C3)n1	32	inactive	–
CCOC(=O)[C@@H]1CC2(CCN(c3cc(O[C@H](c4ccc(-c5ccc6c(c5)CCC(=O)N6)cc4)C(F)(F)F)nc(N)n3)CC2)CN1	–	inactive	–
Cc1nn(C)c2cc(-c3ccc([C@@H](Oc4cc(N5CCC6(CC5)CN[C@H](C(=O)O)C6)nc(N)n4)C(F)(F)F)cc3)ccc12	32	inactive	–
Nc1nc(O[C@H](c2ccc(Cl)cc2-c2cc(F)cc(Cl)c2)C(F)(F)F)cc(N2CCC3(CC2)CN[C@H](C(=O)O)C3)n1	35	–	–
Cc1ccn(-c2cc(-c3ccc(C)c(C)c3)ccc2[C@@H](Oc2cc(N3CCC4(CC3)CN[C@H](C(=O)O)C4)nc(N)n2)C(F)(F)F)n1	20	–	–
CC(C)(C)c1cccc(-c2cc(Cl)ccc2[C@@H](Oc2cc(N3CCC4(CC3)CN[C@H](C(=O)O)C4)nc(N)n2)C(F)(F)F)c1	23	–	Drug metabolism (Mus musculus [8]): Metabolite_Detected
Nc1nc(O[C@H](c2ccc(Cl)cc2-c2cccnc2)C(F)(F)F)cc(N2CCC3(CC2)CN[C@H](C(=O)O)C3)n1	65	–	–
Nc1nc(O[C@H](c2ccc(Cl)cc2-c2cccc(N3CCCC3=O)c2)C(F)(F)F)cc(N2CCC3(CC2)CN[C@H](C(=O)O)C3)n1	77	–	–
Cc1cccc(-c2cc(Cl)ccc2[C@@H](Oc2cc(N3CCC4(CC3)CN[C@H](C(=O)O)C4)nc(N)n2)C(F)(F)F)n1	73	–	–
CCOC(=O)[C@@H]1CC2(CCN(c3cc(O[C@H](c4ccc(-c5ccc6cnccc6c5)cc4)C(F)(F)F)nc(N)n3)CC2)CN1	–	inactive	–
CCOC(=O)[C@@H]1CC2(CCN(c3cc(O[C@H](c4ccc(-c5ccc6c(cnn6C)c5)cc4)C(F)(F)F)nc(N)n3)CC2)CN1	–	inactive	–
Nc1nc(O[C@H](c2ccc(Cl)cc2-n2ccc(CO)n2)C(F)(F)F)cc(N2CCC3(CC2)CNC(C(=O)O)C3)n1 (some centres undefined)	–	–	Drug metabolism [3]: Metabolite_Detected
Cn1ncc2cc(-c3ccc([C@@H](Oc4cc(N5CCC6(CC5)CN[C@H](C(=O)O)C6)nc(N)n4)C(F)(F)F)cc3)ccc21	30	inactive	–
CS(=O)(=O)Nc1cccc(-c2cc(Cl)ccc2[C@@H](Oc2cc(N3CCC4(CC3)CN[C@H](C(=O)O)C4)nc(N)n2)C(F)(F)F)c1	51	–	–
Nc1nc(O[C@H](c2ccc(Cl)cc2-c2cccc(Cl)c2)C(F)(F)F)cc(N2CCC3(CC2)CN[C@H](C(=O)O)C3)n1	30	–	–
CS(=O)(=O)c1ccc(-c2cc(Cl)ccc2[C@@H](Oc2cc(N3CCC4(CC3)CN[C@H](C(=O)O)C4)nc(N)n2)C(F)(F)F)cc1	885	–	–
Cc1c2ccc(-c3ccc([C@@H](Oc4cc(N5CCC6(CC5)CN[C@H](C(=O)O)C6)nc(N)n4)C(F)(F)F)cc3)cc2nn1C	37	inactive	–
Nc1nc(O[C@H](c2ccc(Cl)cc2)C(F)(F)F)cc(N2CCC3(CC2)CN[C@H](C(=O)O)C3)n1	460	inactive	–
